{"source": "paper PMC4773098", "about": "“Inhibition of IKKα by BAY61-3606 Reveals IKKα-Dependent Histone H3 Phosphorylation in Human Cytomegalovirus Infected Cells” (PLoS ONE, 2016)", "format_in_all_cases": "biochemical", "key": {"[1]": {"target": "T1, GCK (germinal center kinase, MAP4K2) (Homo sapiens, UniProt Q12851)", "T1 construct": "Residues 1–473 glutathione-s-transferase (GST) tagged protein", "T1 sequence (Q12851 1-473)": "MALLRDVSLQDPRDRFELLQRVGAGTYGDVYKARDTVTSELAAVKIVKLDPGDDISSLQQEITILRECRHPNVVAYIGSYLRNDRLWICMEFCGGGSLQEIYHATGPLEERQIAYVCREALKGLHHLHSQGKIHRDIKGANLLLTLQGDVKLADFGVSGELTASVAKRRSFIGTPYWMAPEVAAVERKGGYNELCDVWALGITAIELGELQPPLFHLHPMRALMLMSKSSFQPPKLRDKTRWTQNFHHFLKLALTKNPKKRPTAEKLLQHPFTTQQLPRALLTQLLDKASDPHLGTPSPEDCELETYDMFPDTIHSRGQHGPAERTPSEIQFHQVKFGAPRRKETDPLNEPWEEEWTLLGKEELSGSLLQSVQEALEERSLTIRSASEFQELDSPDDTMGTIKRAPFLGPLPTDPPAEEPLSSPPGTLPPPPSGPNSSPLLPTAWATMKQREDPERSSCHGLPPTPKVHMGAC", "assay": "in vitro radiometric kinase assay at […] BAY61-3606 (Fig 3B)"}, "[2]": {"target": "T2, SYK (Homo sapiens, UniProt P43405)", "T2 construct": "Full length His-tagged protein", "assay": "in vitro radiometric kinase assay at […] BAY61-3606 (Fig 3B)"}, "[3]": {"target": "T3, IKKα (Homo sapiens, UniProt O15111)", "T3 construct": "gene CHUK; Full length GST-tagged protein", "T3 sequence (O15111 1-745)": "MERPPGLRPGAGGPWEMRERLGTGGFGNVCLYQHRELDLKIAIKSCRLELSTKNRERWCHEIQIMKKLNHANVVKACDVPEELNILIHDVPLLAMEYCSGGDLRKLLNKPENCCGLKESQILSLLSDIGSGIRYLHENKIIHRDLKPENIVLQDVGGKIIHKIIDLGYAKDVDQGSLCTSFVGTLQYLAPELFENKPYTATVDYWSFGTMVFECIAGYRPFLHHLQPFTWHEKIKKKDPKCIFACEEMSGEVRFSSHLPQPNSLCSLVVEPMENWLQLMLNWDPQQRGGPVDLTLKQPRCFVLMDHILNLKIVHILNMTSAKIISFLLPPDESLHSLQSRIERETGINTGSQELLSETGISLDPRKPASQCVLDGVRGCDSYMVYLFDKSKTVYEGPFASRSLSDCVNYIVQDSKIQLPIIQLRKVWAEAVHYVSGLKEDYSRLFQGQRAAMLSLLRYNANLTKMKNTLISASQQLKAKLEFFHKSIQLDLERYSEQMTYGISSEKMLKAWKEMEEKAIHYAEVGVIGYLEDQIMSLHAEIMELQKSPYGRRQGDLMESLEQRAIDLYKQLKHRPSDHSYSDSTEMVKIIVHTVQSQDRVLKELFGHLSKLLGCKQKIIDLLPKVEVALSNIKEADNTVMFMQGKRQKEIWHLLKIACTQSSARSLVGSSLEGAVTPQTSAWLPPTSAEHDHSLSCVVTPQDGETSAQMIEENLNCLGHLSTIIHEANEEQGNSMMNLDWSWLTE", "assay": "in vitro radiometric kinase assay ([γ-33P-ATP], KinaseProfiler), dose response"}}, "note": "Where a name gives a salt, the structure may show the parent alone."}
{"smiles": "COc1ccc(-c2cc3nccn3c(Nc3ncccc3C(N)=O)n2)cc1OC", "note": "[BAY61-3606, 2-[7-(3,4-dimethoxyphenyl)-imidazo[1,2-c]pyrimidin-5-ylamino]nicotinamide dihydrochloride]", "values": [{"measurement": "in vitro radiometric kinase assay at 10 μM BAY61-3606 (Fig 3B)", "setting": "[1]", "result": "We observed that BAY61-3606 is a potent inhibitor of SYK, GCK and IKKα, but not IKKβ or LYN"}, {"measurement": "in vitro radiometric kinase assay at 10 μM BAY61-3606 (Fig 3B)", "setting": "[2]", "result": "We observed that BAY61-3606 is a potent inhibitor of SYK, GCK and IKKα, but not IKKβ or LYN"}, {"measurement": "IC50", "setting": "[3]", "result": 45, "unit": "nM"}]}
